Measurements from paper PMC6788984, “High-potency ligands for DREADD imaging and activation in rodents and monkeys” (Nature Communications, 2019).
pKi: −log10 of the molar value. Values joined by “and” are separate entries in the source; they are usually repeats but may differ in a detail not shown here. Identical values can stand only once.

Assays:
hM4Di [1] = molecular target: T1, hM4Di (Homo sapiens, UniProt P08173, A203G/Y113C); assay: [3H]clozapine competition binding, membranes of HEK-293 cells expressing hM4Di
T1 sequence (P08173 1-479 Y113C/A203G): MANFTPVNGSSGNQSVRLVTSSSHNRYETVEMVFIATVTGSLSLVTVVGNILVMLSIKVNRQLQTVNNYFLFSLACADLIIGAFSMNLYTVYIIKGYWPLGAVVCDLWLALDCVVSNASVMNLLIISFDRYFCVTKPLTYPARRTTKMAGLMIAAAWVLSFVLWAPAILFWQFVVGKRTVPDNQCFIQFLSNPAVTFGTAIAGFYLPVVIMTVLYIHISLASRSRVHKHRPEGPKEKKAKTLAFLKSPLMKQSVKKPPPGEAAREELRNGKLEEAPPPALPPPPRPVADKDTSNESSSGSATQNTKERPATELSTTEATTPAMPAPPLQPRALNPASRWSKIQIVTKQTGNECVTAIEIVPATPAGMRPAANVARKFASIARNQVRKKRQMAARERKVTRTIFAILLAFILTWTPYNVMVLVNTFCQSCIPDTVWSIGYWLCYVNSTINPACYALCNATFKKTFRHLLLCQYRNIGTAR
Protocol: (§2) Cells were routinely tested for myclopasma contamination (MycoAlert® Mycoplasma Detection Kit, Lonza). Cells were seeded on 60 cm^2 dishes at 4 × 10^6 cells/dish 24 h before transfection. The indicated amount of cDNA was transfected into HEK-293 cells using polyethylenimine (PEI; Sigma-Aldrich) in a 1–2 DNA:PEI ratio. Cell harvesting for radioligand binding experiments or signaling assays were performed approximately 48 h after transfection.
(§3) Cells were suspended in Tris-HCl 50 mM pH 7.4 supplemented with protease inhibitor cocktail (1:100, Sigma-Aldrich, St. Louis, MO, USA). The dissected brain tissue was diluted in Tris-HCl 50 mM buffer supplemented with protease inhibitor cocktail (1:1000). HEK-293 cells or brain tissue were disrupted with a Polytron homogenizer (Kinematica, Basel, Switzerland). Homogenates were centrifuged at 48,000g (50 min, 4 °C) and washed twice in the same conditions to isolate the membrane fraction. Protein was quantified by the bicinchoninic acid method (Pierce). […] In all cases, free and membrane-bound radioligand were separated by rapid filtration of 500-μl aliquots in a 96-well plate harvester (Brandel, Gaithersburg, MD, USA) and washed with 2 ml of ice-cold Tris-HCl buffer. […] One-site competition curves were fitted using Prism 7 (GraphPad Software, La Jolla, CA, USA). Ki values were calculated using the Cheng–Prusoff equation.

[2] = tested on: untransfected HEK-293 cells; assay: Negative controls of the functional assays: HEK-293 cells without DREADD; type: cell-based, human; conditions: HEK-293 cells
Protocol: BRET assays were performed to detect receptor ligand-induced Gαo1 protein activation. […] Forty-eight hour after transfection cells were harvested, washed and resuspended in phosphate-buffered saline (PBS). Approximately, 200,000 cells/well were distributed in 96-well plates, and 5 µM Coelenterazine H (substrate for luciferase) was added to each well. Five minutes after addition of Coelenterazine H, ligands were added to each well. The fluorescence of the acceptor was quantified (excitation at 500 nm and emission at 540 nm for 1-s recordings) in a PheraStar FSX plate reader (BMG Labtech) to confirm the constant expression levels across experiments. In parallel, the BRET signal from the same batch of cells was determined as the ratio of the light emitted by mVenus (510–540 nm) over that emitted by RLuc (485 nm). Results were calculated for the BRET change (BRET ratio for the corresponding drug minus BRET ratio in the absence of the drug) 5 min after the addition of the ligands.
Intracellular Ca^2+ concentration was monitored using the fluorescent Ca^2+ biosensor GCaMP6f. HEK-293 cells were transfected with 7 µg/dish of the cDNA encoding for hM3Dq (Addgene #89149) or hM4Di (Addgene #89150) and 7 µg/dish of GCaMP6. Forty-eight hours after transfection, cells were harvested, washed, resuspended in Mg^2+-free Locke’s buffer pH 7.4 (154 mM NaCl, 5.6 mM KCl, 3.6 mM NaHCO3, 2.3 mM CaCl2, and 5 mM HEPES) containing 5.6 mM of glucose and approximately 200,000 cells/well were distributed in black 96-well plates. Increasing concentrations of the indicated compound were added to the cells and fluorescence intensity (excitation at 480 nm, emission at 530 nm) was measured at 18-s intervals during 250 s using a PHERAstar FSX (BMG Labtech). The net change in intracellular Ca^2+ concentration was expressed as F − F0 where F is the fluorescence at a given concentration of ligand and F0 is the average of the baseline values (fluorescence values of buffer-treated wells).

hM3Dq = hM3Dq (Homo sapiens, UniProt P20309, A239G/Y149C); assay: [3H]clozapine competition binding, membranes of HEK-293 cells expressing hM3Dq
Protocol: as §2, §3

hM4Di [3] = molecular target: T1, hM4Di; assay: [18F]JHU37107 PET in a monkey expressing hM4Di in the right amygdala; type: in vivo, rhesus monkey (Macaca mulatta); design: expressed in transfected cells; host or cells: rhesus monkey (Macaca mulatta) right amygdala, lentivirus-transduced neurons; conditions: mean
Protocol: Lentivirus expressing an hM4Di-CFP fusion protein under an hSyn promoter[11] with a titer of >10^9 infectious particles was loaded into a 100 µL glass syringe (Hamilton Co., MA). The 31-gauge needle of the syringe was sheathed with a silica capillary (450 µm OD) to create a step 1 mm from the base of the aperture. The syringe was mounted in a Nanomite pump (Harvard Apparatus, Cambridge, MA). The needle was lowered through the incision in the dura mater to each of the pre-calculated target sites and 10 or 20 µL was infused at a rate of 1 µL min^−1. Each monkey received a total of between 10 and 12 injections (for a total injection volume of 120–240 µL). Post-infusion, the needle was left in situ for 10 min after each injection to allow pressure from the infusate to dissipate. The needle was then slowly removed. At the completion of the injection series the soft tissues were sutured together in anatomical layers.
(§1) [^18F]JHU37107 was prepared via the no-carrier-added ^18F-fluorination using an FDG Nuclear Interface module (Muenster, Germany). Briefly, 4 mg precursor (8-chloro-11-(4-ethylpiperazin-1-yl)-5H-dibenzo[b,e][1,4]diazepin-2-ol) and 8 mg tris(acetonitrile)cyclopentadienylruthenium(II)hexafluorophosphate (STREM, Boston, MA) were dissolved in ethanol (0.3 mL), the solution was heated at 85 °C for 25 min and evaporated to dryness under a stream of argon gas. The residue was dissolved in DMSO (0.5 mL) and acetonitrile (0.5 mL) and the solution was added to a dry complex of [^18F]fluoride and 9 mg 1,3-bis(2,6-di-i-propylphenyl)-2-chloroimidazolium chloride (STREM). The reaction mixture was heated at 130 °C for 30 min, diluted with mixture of 0.5 mL acetonitrile, 0.5 mL water and 0.03 mL TFA and injected onto a semi-preparative HPLC column (Luna C18, 10 micron, 10 mm × 250 mm) and eluted with 23:77 (v:v) acetonitrile:water (0.1% trifluoroacetic acid) at a flow rate of 10 mL min^−1. The radioactive peak corresponding to [^18F]JHU37107 (tR = 9.9 min) was collected in a reservoir containing 50 mL of water and 3 mL aq 8.4% NaHCO3 solution. The diluted product was loaded onto a solid phase extraction cartridge (Waters Oasis HLB plus light) and rinsed with 10 mL sterile saline. The product was eluted with 1000 µL of ethanol through a sterile 0.2 μm filter into a sterile, pyrogen-free vial and 10 mL saline was added through the same filter. The final product [^18F]JHU37107 was then analyzed by analytical HPLC (Luna C18, 10 micron, 4.6 mm × 250 mm; mobile phase 23:77 (v:v) acetonitrile:water (0.1% trifluoroacetic acid), flow rate of 3 mL min^−1; tR = 6.4 min) using a UV detector at 254 nm to determine the radiochemical purity (>95%) and specific radioactivity (152–188 GBq μmol^−1 (4100–5070 mCi μmol^−1)) at the time synthesis ended.
All macaque studies were acquired dynamically on the Focus 220 PET scanner (Siemens Medical Solutions, Knoxville, TN). The Focus 220 is a dedicated pre-clinical scanner with a transaxial FOV of 19 cm and an axial FOV of 7.5 cm. Image resolution is <2 mm within the central 5 cm FOV.
After initial evaluation the monkey was sedated with ketamine (10 mg kg^−1) followed by ketoprofen (as an analgesic) and glycopyrrolate (for salvia reduction), all weight dependent IM injections. The monkey would then be placed in the supine position, intubated with a tracheal tube. […] The monkey was always monitored while anesthetized. […]

DREADDs = assay: [18F]JHU37107 PET in D1-DREADD transgenic mice; type: in vivo
Protocol: as §1, with “[…] .” for “tR = 6.4 min) using a UV detector at 254 nm to determine the radiochemical purity (>95%) and specific radioactivity (152–188 GBq μmol^−1 (4100–5070 mCi μmol^−1)) at the time synthesis ended.”
Total acquisition time was 60 min.

Chain of hM3Dq (P20309 whole entry Y149C/A239G): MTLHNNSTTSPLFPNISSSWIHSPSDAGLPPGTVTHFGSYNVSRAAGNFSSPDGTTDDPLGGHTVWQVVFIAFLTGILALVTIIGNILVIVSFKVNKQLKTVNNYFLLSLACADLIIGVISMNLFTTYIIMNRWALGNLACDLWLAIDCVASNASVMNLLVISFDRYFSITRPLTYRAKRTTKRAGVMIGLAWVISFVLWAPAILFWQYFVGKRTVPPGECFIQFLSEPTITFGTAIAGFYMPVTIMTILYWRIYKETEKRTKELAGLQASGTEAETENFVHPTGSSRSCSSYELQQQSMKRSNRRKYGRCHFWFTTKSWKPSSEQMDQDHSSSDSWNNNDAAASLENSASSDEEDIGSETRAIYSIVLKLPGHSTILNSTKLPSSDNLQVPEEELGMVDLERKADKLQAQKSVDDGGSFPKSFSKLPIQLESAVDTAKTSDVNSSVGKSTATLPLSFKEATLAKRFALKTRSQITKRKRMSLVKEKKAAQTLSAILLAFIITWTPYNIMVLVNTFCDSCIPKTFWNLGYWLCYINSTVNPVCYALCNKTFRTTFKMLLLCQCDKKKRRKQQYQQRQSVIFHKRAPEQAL

**Q.** `CCN1CCN(C2=Nc3ccccc3Nc3ccccc32)CC1` [C22, reference compound] was tested. Which pKi (hM4Di [1]) did it give?
**A.** 8.05

**Q.** With `C[N+]1([O-])CCN(C2=Nc3cc(Cl)ccc3Nc3ccccc32)CC1` [CNO, clozapine N-oxide, reference compound] as the compound, how does the “functional response, BRET (Go-alpha-Rluc8, beta1, gamma2-mVenus), no DREADD” value [2] read?
**A.** did not show any functional response

**Q.** What about the “functional response, GCaMP6f, no DREADD” value [2] of the same compound?
**A.** did not show any functional response

**Q.** Which results are given for `CCN1CCN(C2=Nc3cc(Cl)ccc3Nc3ccc(F)cc32)CC1` [JHU37107, 8-Chloro-11-(4-ethylpiperazin-1-yl)-2-fluoro-5H-dibenzo[b,e][1,4]diazepine]?
**A.** pKi (hM3Dq): 7.98; pKi (hM4Di [1]): 7.63

**Q.** Which results are given for `CCN1CCN(C2=Nc3cc(Cl)ccc3Nc3ccc([18F])cc32)CC1` [[18F]JHU37107]?
**A.** PET binding value, PFC mean (Figure 4, second Panel l) (hM4Di [3]; PFC): 1.094; PET binding value, PUT mean (Figure 4, second Panel l) (hM4Di [3]; PUT): 1.196; PET binding value, hM4Di mean (Figure 4, second Panel l) (hM4Di [3]; hM4Di region): 2.423; PET binding value, CB (Figure 4 Panel D, first group) (DREADDs; CB, individual values): 0.271 and 0.3157; PET binding value, CB (Figure 4 Panel D, second group) (DREADDs; CB, individual values): 0.004 and 0.238; PET binding value, CB (Figure 4 Panel D, third group) (DREADDs; CB, individual values): 0.02536 and 0.05718 and 0.04755; PET binding value, CTX (Figure 4 Panel D, first group) (DREADDs; CTX, individual values): 0.3049 and 0.3358; PET binding value, CTX (Figure 4 Panel D, second group) (DREADDs; CTX, individual values): 0.244 and 0.22; PET binding value, CTX (Figure 4 Panel D, third group) (DREADDs; CTX, individual values): 0.4367 and 0.4206 and 0.3996; PET binding value, baseline (Figure 4 Panel D) (DREADDs; first line (values equal the STR values of the third group)): 1.736 and 1.664 and 1.424 and 1.7038 and 1.723 and 1.422; PET binding value, baseline (Figure 4 Panel D) (DREADDs; second line (values equal the CTX values of the third group)): 0.4367 and 0.4206 and 0.3996; PET binding value, blocked (Figure 4 Panel D) (DREADDs; first line (STR by position)): 0.6764 and 0.9438 and 0.6607 and 0.8306; PET binding value, blocked (Figure 4 Panel D) (DREADDs; second line (CTX by position)): 0.2742 and 0.4049; PET binding value, blocked (Figure 4 Panel D) (DREADDs; third line (CB by position)): 0.2463 and 0.2748
